Read-outs that look alike come from different tables or passages of the source.
Columns and labels:
Format in all cases: physicochemical
[1] = β-sheet content by ATR-FT-IR; conditions: for ß-sheet / %: ATR-FT-IR of lyophilised 1 mg/mL PNF solution, peak integral ratio 1625-1635 cm-1, measured once; for b -sheet / %: Fig. S7 panel A, β-sheet content by ATR-FT-IR; for beta sheet: peptides with TEM 2cat 0
Description: For ATR FT–IR spectroscopy measurements, 200 µL of the respective 1 mg/mL PNF solution was lyophilized and the resulting powder used for measurement. All spectra were recorded on a Bruker Tensor 27 spectrometer with a diamond crystal as ATR element (PIKE MiracleTM, spectral resolution 2 cm^-1). Every sample was measured with 64 scans. Data were analyzed with OriginLab software and calculation of β–sheet content was conducted according to a previous report. TEM. For TEM measurements 5 µL of PNF fibrils (1 mg/mL) were placed on copper grids coated with carbon and formvar layer (300 mesh, Plano GmbH). After 10 min incubation time, the grids were staining with 4% uranyl acetate solution for 2.5 min and washed with water. Measurements were performed on a Jeol 1400 electron microscope with 120 kV acceleration voltage. CR Assay. For the determination of the amount of peptide monomer converting into nanostructures the amine reactive dye fluorescamine was used analogous to a previous reported protocol. Briefly, 100 µL of the preformed PNF solution was centrifuged in a Vivaspin 500 tube (3 kDa MWCO) to separate fibers from free peptide monomer (16200 x g, 4 °C, 45 min). The filtrate and 100 μL of the non-filtered PNF sample were lyophilized and dissolved in 30 μL DMSO. 10 μL of the filtrate and non-filtered DMSO samples were submitted in a black UV Star® 384 microliter well–plates (Greiner bio–one) and 3 μL of the fluorescamine solution (10 mg/mL, DMSO) was added to measure the fluorescence enhancement. After 20 min of incubation at RT, fluorescence was recorded on an Infinite® M1000 PRO microplate reader (Tecan) at λem = 470 nm upon excitation at λex = 365 nm with 10 nm bandwidths and multiple reads per well (3×3). Measurements were repeated in triplicates and averaged with standard deviation. All values were calculated as n-fold fluorescence enhancement (DMSO only as a reference was set to 1). The conversion rate CR was defined according to the equation Eq. (3).3 CR=100−100×fluorescenceintensityfiltrate/fluorescenceintensityoriginal[%]

[2] = Turbidity, derived count rate of scattered light; conditions: for Count Rate: derived count rate of scattered light (turbidity); for Log10 Count Rate: turbidity, derived count rate of scattered light, data of Figure 2D
[3] = Zeta-potential measurement; conditions: for Zeta pot. / mV: 1 mg/mL in PBS pH 7.4 from 10 mg/mL DMSO stock, 1 d RT, 60 µL diluted in 600 µL 1 mM KCl, Zetasizer Nano ZS, Smoluchowski, mean of triplicate
Method in brief: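 Dissolve peptide from DMSO (10 mg/mL stock) into PBS pH 7.4 to 1 mg/mL. Incubate 1 d, RT. Dilute in 1 mM KCl just before reading. Derive zeta potential from mobility (Smoluchowski).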

[4] = zeta-potential of peptide, source data of Figure 2C
[5] = zeta-potential of the peptide assemblies, mean, Figure 3A source data
[6] = zeta potential of peptide assemblies

Substance	ß-sheet / % [1] [%]	b -sheet / % [1] [%]	Count Rate [2]	Log10 Count Rate [2]	Zeta-Pot. [3]	Zeta pot. / mV [3] [mV]	Zeta-Potential / mV [3, 4] [mV]	Zeta-Potential / mV [3, 5] [mV]	Zeta-Pot. [3, 6]	beta sheet [1]
CKAKAQANM	34	34.22	207.3	2.317	-7.773	-7.8	-4.618	-7.77	–	–
QCKFKQFFNMWQ	–	41.78	18911.36667	4.277	9.587	–	11.04	9.59	–	–
HHHHKIKIQINMYYYY	–	46.73	5659	3.753	–	–	7.147	7.81	7.807	–
QCKAKAQANM	35	35.27	204.1	2.31	-8.357	-8.4	-4.641	-8.36	–	–
CSISIQI	–	58.57	10241.1	4.01	–	–	-26.07	-25.93	-25.93	–
KIKIQIMWNQ	–	41.4	1887	3.2757	2.96	–	4.42	2.96	–	–
KIKIQINMWWWQ	–	47.92	7596.3	3.8806	9.45	–	9.633	9.45	–	48
HHHHKIKIKIKIYYYY	–	53.27	12792.53333	4.107	–	–	12.88	13.2	13.2	53
HHHHKAKAKAKAWWWW	–	40.26	658.9	2.8188	17.4	–	12.25	17.4	–	–
RGDKIKIQINM	–	45.52	57.2	1.7574	–	–	16.22	16.43	16.43	–
HHHHKIKIKIKIWWWW	–	48.8	23756.66667	4.376	–	–	14.42	14.5	14.5	49
KAKAKAQA	–	39.62	76.93	1.886	–	–	-5.297	-9.01	-9.01	–
KIKIKIQINMWQ	–	39.61	1603.1	3.205	13.1	–	13	13.1	–	–
MKIKIQINMWQ	–	39.2	1475	3.169	–	–	11.2	10.8	10.8	–
IKVAVKIKIQINM	–	58.1	4848	3.686	14.5	–	14.18	14.5	–	–
KFKFQFNM	–	40.31	131.8	2.12	13.9	–	18.4	13.9	–	–
RGDKIKIQIC	–	40.73	7509	3.876	–	–	17.27	16.5	16.5	–
CKIKIQIRGD	–	58.14	5777	3.762	–	–	7.157	7.16	7.157	–

From PMC10447463, “Data-mining unveils structure–property–activity correlation of viral infectivity enhancing self-assembling peptides” (Nature Communications, 2023)
